Measurements from ChEMBL document CHEMBL1201862, “PubChem BioAssay data set” (2004).
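Briefly, cells in 96-well plates were exposed to five compound concentrations for 48 h, and endpoints were estimated by linear interpolation. The concentration for 50% growth inhibition is given as GI50.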 The source made the active and inactive calls. Rule as the data show it: active = GI50 up to about 1.1 µM and inactive = higher.

Experiments:
Assay in all cases: DTP human tumour cell line panel, 48 h
HT-29 = tested on: HT-29
A498 = tested on: A498
NCI-H23 = tested on: NCI-H23
HL-60 = tested on: HL-60
SN12C = tested on: SN12C
HOP-62 = tested on: HOP-62
SR = tested on: SR
RPMI-8226 = tested on: RPMI-8226
ACHN = tested on: ACHN
OVCAR-3 = tested on: OVCAR-3
SF-539 = tested on: SF-539
MOLT-4 = tested on: MOLT-4
SF-268 = tested on: SF-268
NCI-H226 = tested on: NCI-H226
DLD-1 = tested on: DLD-1
HOP-92 = tested on: HOP-92
SK-OV-3 = tested on: SK-OV-3
KM12 = tested on: KM12

Measured: GI50

CCOC(=O)C(C)(C)Oc1ccc(/C=C/C(=O)c2ccc(Cl)cc2)cc1
inactive: HT-29 15.6 µM | A498 20.2 µM | NCI-H23 18.6 µM | HL-60 24.5 µM | SN12C 19.1 µM | HOP-62 39.4 µM | SR 27.3 µM | RPMI-8226 10.9 µM | ACHN > 10 µM | OVCAR-3 16.3 µM | SF-539 19.5 µM | MOLT-4 19.6 µM | SF-268 19.1 µM | NCI-H226 30 µM | DLD-1 14.1 µM

CSc1cccc(-n2c3nc(=O)n(C)c(=O)c-3nc3ccccc32)c1
active: ACHN 0.735 µM
inactive: HT-29 2.51 µM | A498 12.6 µM | NCI-H23 4.35 µM | HL-60 3.34 µM | SN12C 5.38 µM | HOP-62 18.1 µM | HOP-92 9.33 µM | RPMI-8226 5.77 µM | SK-OV-3 35.3 µM | OVCAR-3 2.26 µM | SF-539 2.16 µM | MOLT-4 12 µM | SF-268 16.6 µM | KM12 12.9 µM | NCI-H226 11.8 µM | DLD-1 14 µM

Cc1ccc(S(=O)(=O)N/N=C(\c2nc3ccc(Cl)cc3[nH]c2=O)C(O)c2ccco2)cc1 (stereo not drawn)
inactive: HT-29 > 100 µM | A498 > 100 µM | NCI-H23 > 100 µM | HL-60 44 µM | HOP-92 > 100 µM | ACHN > 100 µM | OVCAR-3 > 100 µM | SF-539 > 100 µM | MOLT-4 28.1 µM | SF-268 > 100 µM | KM12 66.8 µM | NCI-H226 > 100 µM | DLD-1 > 100 µM

O=[N+]([O-])c1cccc(-c2oc(/C=N/c3ccccc3)c([N+](=O)[O-])c2-c2cccc([N+](=O)[O-])c2)c1
inactive: HT-29 > 100 µM | A498 > 100 µM | NCI-H23 > 100 µM | HL-60 > 100 µM | HOP-62 > 100 µM | HOP-92 > 100 µM | RPMI-8226 > 100 µM | SK-OV-3 > 100 µM | ACHN > 100 µM | OVCAR-3 > 100 µM | SF-539 > 100 µM | MOLT-4 > 100 µM | SF-268 > 100 µM | KM12 > 100 µM | NCI-H226 > 100 µM | DLD-1 > 100 µM

OC1OC2COC(c3ccccc3)OC2C(O)C1O (stereo not drawn)
inactive: HT-29 > 100 µM | A498 > 100 µM | NCI-H23 > 100 µM | HL-60 > 100 µM | SN12C > 100 µM | HOP-62 > 100 µM | HOP-92 > 100 µM | RPMI-8226 > 100 µM | SK-OV-3 > 100 µM | ACHN > 100 µM | OVCAR-3 > 100 µM | SF-539 > 100 µM | MOLT-4 > 100 µM | SF-268 > 100 µM | KM12 > 100 µM | NCI-H226 > 100 µM | DLD-1 > 100 µM

CC1=C(C(=O)NCc2ccccc2)C(c2ccccc2[N+](=O)[O-])C(C(=O)NCc2ccccc2)=C(C)N1
inactive: HT-29 12.8 µM | A498 18.2 µM | NCI-H23 12.3 µM | HL-60 3.31 µM | SN12C 12 µM | HOP-62 20.6 µM | SR 5.13 µM | HOP-92 20.8 µM | ACHN 13.9 µM | OVCAR-3 5.31 µM | SF-539 8.09 µM | MOLT-4 8.93 µM | SF-268 9.18 µM | KM12 10.4 µM | NCI-H226 16.2 µM | DLD-1 6.73 µM

CC(C)(C)c1ccc2c(c1)S(=O)(=O)Nc1cccc(c1)NS(=O)(=O)c1cc(C(C)(C)C)ccc1OCCOCCO2
inactive: HT-29 > 100 µM | A498 > 100 µM | NCI-H23 > 100 µM | SN12C > 100 µM | HOP-62 > 100 µM | HOP-92 50.6 µM | RPMI-8226 23.6 µM | SK-OV-3 > 100 µM | ACHN > 100 µM | OVCAR-3 > 100 µM | SF-539 > 100 µM | MOLT-4 > 100 µM | SF-268 > 100 µM | KM12 > 100 µM | NCI-H226 > 100 µM | DLD-1 > 100 µM

O=C(/C=C/c1ccccc1O)C(c1ccccc1)c1ccccc1
inactive: HT-29 > 100 µM | A498 > 100 µM | NCI-H23 > 100 µM | SN12C > 100 µM | HOP-62 > 100 µM | SR > 100 µM | HOP-92 > 100 µM | RPMI-8226 72.6 µM | SK-OV-3 > 100 µM | ACHN > 100 µM | OVCAR-3 > 100 µM | SF-539 > 100 µM | MOLT-4 > 100 µM | SF-268 > 100 µM | KM12 98.9 µM | NCI-H226 > 100 µM | DLD-1 > 100 µM

Cc1cn(C2CC(O)C(COC(=O)c3ccccc3)O2)c(=O)[nH]c1=O (stereo not drawn)
inactive: HT-29 > 100 µM | A498 > 100 µM | NCI-H23 > 100 µM | HL-60 > 100 µM | SN12C > 100 µM | HOP-62 > 100 µM | SR > 100 µM | HOP-92 > 100 µM | RPMI-8226 > 100 µM | ACHN > 100 µM | OVCAR-3 > 100 µM | SF-539 > 100 µM | MOLT-4 > 100 µM | SF-268 > 10 µM | KM12 > 100 µM | DLD-1 > 100 µM

CCOc1ccccc1NC(=O)CCC(=O)NN
inactive: HT-29 > 100 µM | A498 > 100 µM | NCI-H23 > 100 µM | HL-60 > 100 µM | SN12C > 100 µM | HOP-62 > 100 µM | SR 2.75 µM | HOP-92 > 100 µM | RPMI-8226 65.6 µM | SK-OV-3 > 100 µM | ACHN > 100 µM | OVCAR-3 > 100 µM | SF-539 > 100 µM | MOLT-4 > 100 µM | SF-268 > 100 µM | KM12 > 100 µM | NCI-H226 > 100 µM | DLD-1 > 100 µM

Cn1c(=O)c2nc3sc4ccccc4c(=N)n3c2n(C)c1=O
inactive: HT-29 > 100 µM | A498 > 100 µM | NCI-H23 > 100 µM | HL-60 > 100 µM | SN12C > 100 µM | HOP-62 > 100 µM | SR > 100 µM | HOP-92 > 100 µM | SK-OV-3 > 100 µM | ACHN > 100 µM | SF-539 > 100 µM | MOLT-4 > 100 µM | SF-268 > 100 µM | KM12 > 100 µM | NCI-H226 25.1 µM | DLD-1 > 100 µM

C[N+]1(C)C/C(=C/c2ccc(F)cc2)C(=O)/C(=C\c2ccc(F)cc2)C1
inactive: A498 31.1 µM | NCI-H23 32.7 µM | HL-60 17.3 µM | SN12C 2.14 µM | HOP-62 > 100 µM | HOP-92 > 100 µM | RPMI-8226 24.4 µM | SK-OV-3 > 100 µM | ACHN > 100 µM | OVCAR-3 45.5 µM | SF-539 38.2 µM | MOLT-4 15.4 µM | SF-268 23.3 µM | KM12 67.8 µM | DLD-1 30.2 µM

COc1ccc2c3ccc4c(c3n(C)c2c1)C(=O)C=CC4=O
inactive: HT-29 > 100 µM | A498 > 100 µM | NCI-H23 52.1 µM | HL-60 3.84 µM | SN12C 40.4 µM | HOP-62 > 100 µM | SR 2.84 µM | HOP-92 14.1 µM | RPMI-8226 6.41 µM | SK-OV-3 > 100 µM | ACHN 20.7 µM | SF-539 20.8 µM | MOLT-4 2.86 µM | SF-268 44.3 µM | NCI-H226 > 100 µM | DLD-1 15.3 µM

c1ccc2c(c1)C1=NCCN1c1ccccc1-2
inactive: HT-29 2.41 µM | A498 3.18 µM | NCI-H23 2.72 µM | HL-60 2.42 µM | SN12C 2.45 µM | HOP-62 3.25 µM | HOP-92 4.45 µM | RPMI-8226 2.32 µM | SK-OV-3 4.9 µM | ACHN 2.11 µM | OVCAR-3 2.95 µM | SF-539 2.78 µM | MOLT-4 1.85 µM | SF-268 3.46 µM | KM12 2.96 µM | DLD-1 1.77 µM
active: SR 0.502 µM

Cc1ccc([S+]([O-])c2ccccc2[N+](=O)[O-])cc1 (stereo not drawn)
inactive: HT-29 69.3 µM | A498 28.1 µM | NCI-H23 32.6 µM | HL-60 29.1 µM | SN12C 72.6 µM | HOP-62 > 100 µM | SR 46 µM | HOP-92 60 µM | RPMI-8226 52.8 µM | SK-OV-3 > 100 µM | ACHN > 100 µM | OVCAR-3 73.8 µM | SF-539 58.5 µM | MOLT-4 41.3 µM | KM12 54.6 µM | NCI-H226 30.5 µM | DLD-1 > 100 µM

CC(=O)n1cc(CC(C)O)c(=O)[nH]c1=O (stereo not drawn)
inactive: HT-29 > 100 µM | A498 > 100 µM | NCI-H23 > 100 µM | HL-60 > 100 µM | SN12C 17.1 µM | HOP-62 > 100 µM | SR > 100 µM | RPMI-8226 > 100 µM | SK-OV-3 > 100 µM | ACHN > 100 µM | OVCAR-3 > 100 µM | SF-539 > 100 µM | MOLT-4 > 100 µM | SF-268 > 100 µM | KM12 > 100 µM | NCI-H226 > 100 µM | DLD-1 > 100 µM

CC(C)(C)C(=O)/C=C/c1ccc(Oc2ccccc2)cc1
inactive: HT-29 8.51 µM | A498 14.5 µM | NCI-H23 > 10 µM | SN12C 19.3 µM | HOP-62 27.4 µM | RPMI-8226 8.95 µM | SK-OV-3 37.9 µM | ACHN 17.5 µM | SF-539 > 10 µM | MOLT-4 6.95 µM | SF-268 22 µM | KM12 14.8 µM | NCI-H226 19.6 µM | DLD-1 15 µM
